Experimental data as given in PubChem BioAssay AID624142 (National Center for Advancing Translational Sciences (NCATS), 2012).

Test system: human liver microsomes, half-life, LC-MS/MS
Assay: qHTS Assay to Find Inhibitors of T. brucei phosphofructokinase: Human Liver Microsome Stability
Details: at 1 µM; stronger effect = higher value

O=C(Cc1ccc(Cl)c(Cl)c1)Nc1ccc(S(=O)(=O)Nc2ccon2)cc1 was tested, and the half-life was 5.5 h.
